Results: publication PMC6768028, “Synthesis, SAR and in vitro therapeutic potentials of thiazolidine-2,4-diones” (Chemistry Central Journal, 2018)
≈ marks a conversion by molar mass, not a printed value. Like-named read-outs stand apart in the source and are kept apart here.

Columns and labels:
[1] = test system: α-amylase enzyme (diastase); assay: Antidiabetic activity: α-amylase inhibitory activity using diastase, colorimetric method; assay type: biochemical; conditions: for IC50 (antidiabetic activity, α-amylase): calculated via graph of % inhibition
Protocol: All the synthesized compounds were evaluated against α-amylase inhibitory activity by using diastase based on colorimetric method. 0.25 g of soluble potato starch was dissolved in 50 ml of 20 mM phosphate buffer by heating for 15 min. 1 mg diastase (amylase enzyme) was mixed in 100 ml of 20 mM phosphate buffer (pH 6.9) to obtain the enzyme solution. Different concentrations of all the synthesized derivatives were prepared by dissolving them in DMSO. […] 1 ml of enzyme solution was mixed with 1 ml of each synthesized derivatives and incubated for 10 min at 25 °C. Then 1 ml of this mixture was mixed with 1 ml of soluble potato starch solution in a tube and incubated for 10 min at 25 °C. Then tubes were closed after adding 1 ml of color reagent and placed into water bath for 15 min at 85 °C. The reaction mixture was removed from water bath after 15 min. After cooling, the reaction mixture was diluted with 9 ml of distilled water and the absorbance was taken at 540 nm in UV spectrophotometer. Blank solution was prepared by replacing the enzyme solution with buffer solution and absorbance was taken. Measurement of control was performed in identical manner by replacing the synthesized derivatives in 1 ml of DMSO.
Percentage inhibition of α-amylase enzyme was calculated by using following formula:1 %Inhibition=ABlank-ASample/ABlank×100

Bacillus subtilis = assay: Antimicrobial activity, tube dilution method (MIC); assay type: cell-based; conditions: 24 h
Protocol: (§1) The in vitro antimicrobial activity of synthesized compounds was done by tube dilution method against Gram-positive bacteria: Staphylococcus aureus, Bacillus subtilis, Gram-negative bacteria: Escherichia coli, Klebsiella pneumonia, Salmonella typhi and fungal: Candida albicans and Aspergillus niger strains using cefadroxil and fluconazole as standard. Dilutions of test and standard compounds were prepared in double strength nutrient broth for bacterial strains and Sabouraud dextrose broth for fungal strains.

Escherichia coli = assay: Antimicrobial activity, tube dilution method (MIC); assay type: cell-based; conditions: 24 h, read-out: Minimum inhibitory concentration, E. coli, tube dilution, 37 ± 1 °C, 24 h
Protocol: as §1

Klebsiella pneumonia = assay: Antimicrobial activity, tube dilution method (MIC); assay type: cell-based; conditions: Klebsiella pneumoniae, 24 h
Protocol: as §1

Salmonella typhi = assay: Antimicrobial activity, tube dilution method (MIC); assay type: cell-based; conditions: Salmonella enterica, TYPHI, 24 h, read-out: Minimum inhibitory concentration, S. typhi
Protocol: as §1

Staphylococcus aureus = assay: Antimicrobial activity, tube dilution method (MIC); assay type: cell-based; conditions: 24 h, read-out: Minimum inhibitory concentration, S. aureus, tube dilution, 37 ± 1 °C, 24 h
Protocol: as §1

Aspergillus niger = assay: Antifungal activity, tube dilution method (MIC); assay type: cell-based; conditions: 168 h
Protocol: as §1

Candida albicans = assay: Antifungal activity, tube dilution method (MIC); assay type: cell-based; conditions: 48 h
Protocol: as §1

[2] = Antioxidant activity: free radical scavenging method by DPPH assay; conditions: for % inhibition (DPPH), 25 μg/ml / % inhibition (DPPH), 50 μg/ml / % inhibition (DPPH), 75 μg/ml / % inhibition (DPPH), 100 μg/ml: 30 min, 517 nm; for IC50 (antioxidant activity, DPPH): calculated via graph of % inhibition
Protocol: The antioxidant activity of the newly synthesized compounds were evaluated spectrophotometrically using free radical scavenging method by DPPH (2,2-diphenyl-1-picrylhydrazyl) assay. The DPPH is a stable free radical with maximal absorption at 517 nm and is reduced to a corresponding hydrazine when it reacting with hydrogen donors. […] DPPH solution (3 μg/ml) was prepared in methanol and DPPH (in 1:1) solution was used for blank reference. Four dilutions of different concentrations (25, 50, 75 and 100 μg/ml) of each synthesized compound and standard (ascorbic acid) were prepared in the methanol and 1 ml of each concentration was added to 1 ml of DPPH solution. The solution mixture was shaken vigorously and kept in dark place for 30 min at room temperature and absorbance was measured by UV at 517 nm. Percentage inhibition of Free radical DPPH was calculated as follows:1 %Inhibition=ABlank-ASample/ABlank×100 where, ABlank: absorbance of the blank reaction, ASample: absorbance of the test compound.

[3] = read-out: Minimum inhibitory concentration, B. subtilis, tube dilution, 37 ± 1 °C, 24 h
[4] = read-out: Minimum inhibitory concentration, K. pneumonia, tube dilution, 37 ± 1 °C, 24 h
[5] = read-out: Minimum inhibitory concentration, A. niger, tube dilution, 25 ± 1 °C, 7 days
[6] = read-out: Minimum inhibitory concentration, C. albicans, tube dilution, 37 ± 1 °C, 48 h
[7] = tube dilution, 37 ± 1 °C, read-out: Minimum inhibitory concentration, B. subtilis
[8] = tube dilution, 37 ± 1 °C, read-out: Minimum inhibitory concentration, K. pneumonia

| Compound | % inhibition (α-amylase), 25 μg/ml [1] [%] | % inhibition (α-amylase), 50 μg/ml [1] [%] | % inhibition (α-amylase), 75 μg/ml [1] [%] | % inhibition (α-amylase), 100 μg/ml [1] [%] | MIC (Bacillus subtilis; [3]) [mM] | MIC (Escherichia coli) [mM] | MIC (Klebsiella pneumonia; [4]) [mM] | MIC (Salmonella typhi) [mM] | MIC (Staphylococcus aureus) [mM] | MIC (Aspergillus niger; [5]) [mM] | MIC (Candida albicans; [6]) [mM] | IC50 (antidiabetic activity, α-amylase) [1] [µg/mL] | % inhibition (DPPH), 25 μg/ml [2] [%] | % inhibition (DPPH), 50 μg/ml [2] [%] | % inhibition (DPPH), 75 μg/ml [2] [%] | % inhibition (DPPH), 100 μg/ml [2] [%] | IC50 (antioxidant activity, DPPH) [2] [µg/mL] | also measured |
| --- | --- | --- | --- | --- | --- | --- | --- | --- | --- | --- | --- | --- | --- | --- | --- | --- | --- | --- |
| C[C@H]1O[C@H](O[C@H]2[C@H](O)[C@@H](O)[C@@H](O[C@H]3[C@H](O)[C@@H](O)C(O)O[C@@H]3CO)O[C@@H]2CO)[C@H](O)[C@@H](O)[C@@H]1N[C@H]1C=C(CO)[C@@H](O)[C@H](O)[C@H]1O (stereo partly drawn) [Acarabose, Acarbose, reference compound] | 37.35 | 53.45 | 73.25 | 88.57 |  |  |  |  |  |  |  |  |  |  |  |  |  |  |
| O=C1NC(=O)C(=Cc2ccc([N+](=O)[O-])cc2)S1 [Compound 1, 5-(4-Nitrobenzylidene)thiazolidine-2,4-dione] | 22.65 | 35.79 | 55.52 | 88.68 | 9.9 (≈ 2480 µg/mL) | 4.9 (≈ 1230 µg/mL) | 9.9 (≈ 2480 µg/mL) | 4.9 (≈ 1230 µg/mL) | 4.9 (≈ 1230 µg/mL) | 4.9 (≈ 1230 µg/mL) | 4.9 (≈ 1230 µg/mL) | 54.35 (≈ 217 µM) | 32.64 | 40.22 | 73.41 | 84.81 | 36.35 (≈ 145 µM) |  |
| O=C1NC(=O)C(=Cc2ccccc2O)S1 [Compound 17, 5-(2-Hydroxybenzylidene)thiazolidine-2,4-dione] | 23.67 | 48.56 | 65.46 | 93.17 |  | 5.65 (≈ 1250 µg/mL) |  | 5.65 (≈ 1250 µg/mL) | 5.65 (≈ 1250 µg/mL) | 5.65 (≈ 1250 µg/mL) | 5.65 (≈ 1250 µg/mL) | 48.48 (≈ 219 µM) | 32.78 | 40.24 | 69.55 | 89.87 | 40.06 (≈ 181 µM) | MIC (Bacillus subtilis; [7]): 11.3 mM (≈ 2500 µg/mL); MIC (Klebsiella pneumonia; [8]): 11.3 mM (≈ 2500 µg/mL) |
| COc1ccc(C=C2SC(=O)NC2=O)cc1 [Compound 12, 5-(4-methoxybenzylidene)thiazolidine-2,4-dione] | 27.77 | 53.23 | 62.27 | 79.43 | 10.6 (≈ 2490 µg/mL) | 5.31 (≈ 1250 µg/mL) | 10.6 (≈ 2490 µg/mL) | 5.31 (≈ 1250 µg/mL) | 10.6 (≈ 2490 µg/mL) | 5.31 (≈ 1250 µg/mL) | 5.31 (≈ 1250 µg/mL) | 27.63 (≈ 117 µM) | 20.67 | 42.75 | 77.84 | 90.50 | 53.27 (≈ 226 µM) |  |
| O=C1NC(=O)C(=Cc2ccc(Cl)cc2Cl)S1 [Compound 3, 5-(2,4-Dichlorobenzylidene)thiazolidine-2,4-dione] | 29.45 | 47.98 | 60.83 | 95.79 | 4.5 (≈ 1230 µg/mL) | 9.12 (≈ 2500 µg/mL) | 9.12 (≈ 2500 µg/mL) | 4.5 (≈ 1230 µg/mL) | 4.5 (≈ 1230 µg/mL) | 4.5 (≈ 1230 µg/mL) | 4.5 (≈ 1230 µg/mL) | 43.45 (≈ 159 µM) | 35.89 | 42.67 | 70.25 | 85.44 | 29.04 (≈ 106 µM) |  |
| OC(Cn1cncn1)(Cn1cncn1)c1ccc(F)cc1F [Fluconazole, fluconazole, reference compound] |  |  |  |  |  |  |  |  |  |  |  |  |  |  |  |  |  | MIC (Aspergillus niger; tube dilution, 25 ± 1 °C, 7 days, read-out: Minimum inhibitory concentration, A. niger): 4.08 mM (≈ 1250 µg/mL); MIC (Candida albicans; tube dilution, 37 ± 1 °C, read-out: Minimum inhibitory concentration, C. albicans): 4.08 mM (≈ 1250 µg/mL) |
| O=C1NC(=O)C(=Cc2ccccc2Cl)S1 [Compound 13, 5-(2-Chlorobenzylidene)thiazolidine-2,4-dione] | 25.74 | 43.89 | 56.76 | 92.72 | 10.4 (≈ 2490 µg/mL) | 5.21 (≈ 1250 µg/mL) | 10.4 (≈ 2490 µg/mL) | 5.21 (≈ 1250 µg/mL) | 5.21 (≈ 1250 µg/mL) | 2.6 (≈ 623 µg/mL) | 5.21 (≈ 1250 µg/mL) | 48.45 (≈ 202 µM) | 24.45 | 44.76 | 71.51 | 77.84 | 39.41 (≈ 164 µM) |  |
| O=C1O[C@H]([C@@H](O)CO)C(O)=C1O [Ascorbic acid, ascorbic acid, reference compound] |  |  |  |  |  |  |  |  |  |  |  |  | 38.99 | 55.78 | 72.51 | 93.15 | 21.64 (≈ 123 µM) |  |
| O=C1NC(=O)C(=Cc2ccccc2[N+](=O)[O-])S1 [Compound 4, 5-(2-Nitrobenzylidene)thiazolidine-2,4-dione] | 31.26 | 40.65 | 63.93 | 92.61 | 9.9 (≈ 2480 µg/mL) |  | 9.9 (≈ 2480 µg/mL) | 4.99 (≈ 1250 µg/mL) | 4.99 (≈ 1250 µg/mL) | 4.99 (≈ 1250 µg/mL) | 4.99 (≈ 1250 µg/mL) | 43.63 (≈ 174 µM) | 29.45 | 45.75 | 79.74 | 83.10 | 36.17 (≈ 145 µM) |  |
| CC1=C(C(=O)O)N2C(=O)[C@@H](NC(=O)[C@H](N)c3ccc(O)cc3)[C@H]2SC1 [Cefadroxil, cefadroxil, reference compound] |  |  |  |  |  | 1.71 (≈ 621 µg/mL) |  | 1.71 (≈ 621 µg/mL) | 1.71 (≈ 621 µg/mL) |  |  |  |  |  |  |  |  | MIC (Bacillus subtilis; [7]): 3.4 mM (≈ 1240 µg/mL); MIC (Klebsiella pneumonia; [8]): 3.4 mM (≈ 1240 µg/mL) |
